{
  "source": "paper PMC3664942",
  "about": "(Physical chemistry chemical physics : PCCP, 2013)",
  "key": {"Aβ1-40": {"tested_on": "Aβ1-40", "assay": "nESI-IM-MS neuropeptide screen for binding with Aβ1-40", "details": "for Complex formation with Aβ1-40 detected by nESI-IM-MS: 20 μM Aβ1-40, one equivalent of neuropeptide, pH 6.9, 1 h on ice; for Aβ complexes detected by IM-MS: neuropeptide added in large excess in solution"}, "hippocampal neurons": {"tested_on": "hippocampal neurons", "details": "μM concentrations; cited from earlier work"}, "metal-free Aβ1-40": {"target": "metal-free Aβ1-40", "details": "read-out: Kd relative to Aβ monomer; absence of metal ions; cited from earlier work"}},
  "data": [
    {"substance": "neurotensin", "values": [
      {"measurement": "Complex formation with Aβ1-40 detected by nESI-IM-MS", "setting": "Aβ1-40", "value": "not evident"},
      {"measurement": "Aβ complexes detected by IM-MS", "setting": "Aβ1-40", "value": "No Aβ complexes were detected"}
    ]},
    {"substance": "physalaemin [reference compound]", "values": [
      {"measurement": "Inhibition of Aβ-induced neurotoxicity", "setting": "hippocampal neurons", "value": "inhibitors of Aβ-induced neurotoxicity"}
    ]},
    {"substance": "(–)-epigallocatechin-3-gallate [EGCG]", "values": [
      {"measurement": "Kd", "setting": "metal-free Aβ1-40", "value": "~60", "unit": "µM"}
    ]},
    {"substance": "galanin", "values": [
      {"measurement": "Complex formation with Aβ1-40 detected by nESI-IM-MS", "setting": "Aβ1-40", "value": "detected"}
    ]},
    {"substance": "Somatostatin 14", "values": [
      {"measurement": "Complex formation with Aβ1-40 detected by nESI-IM-MS", "setting": "Aβ1-40", "value": "not evident"},
      {"measurement": "Aβ complexes detected by IM-MS", "setting": "Aβ1-40", "value": "No Aβ complexes were detected"}
    ]},
    {"substance": "substance P", "values": [
      {"measurement": "Complex formation with Aβ1-40 detected by nESI-IM-MS", "setting": "Aβ1-40", "value": "not evident"},
      {"measurement": "Aβ complexes detected by IM-MS", "setting": "Aβ1-40", "value": "No Aβ complexes were detected"},
      {"measurement": "Inhibition of Aβ-induced neurotoxicity", "setting": "hippocampal neurons", "value": "inhibitors of Aβ-induced neurotoxicity"}
    ]}
  ]
}
